The values that follow come from patent US20240343704A1, “HALO-SUBSTITUTED AMINO PYRIDINE COMPOUNDS AS INHIBITORS OF THE HAEMATOPOIETIC PROGENITOR KINASE 1 (HPK1)” (priority 2021, published 2024).

The structures appear in SMILES notation.

In assay [1] the target is T1, Recombinant (1-346) HPK1 (h) (Homo sapiens, UniProt Q92918).
T1 construct: Recombinant (1-346) HPK1 (h) is incubated with 8 mM MOPS pH 7.0
T1 sequence (Q92918 1-346): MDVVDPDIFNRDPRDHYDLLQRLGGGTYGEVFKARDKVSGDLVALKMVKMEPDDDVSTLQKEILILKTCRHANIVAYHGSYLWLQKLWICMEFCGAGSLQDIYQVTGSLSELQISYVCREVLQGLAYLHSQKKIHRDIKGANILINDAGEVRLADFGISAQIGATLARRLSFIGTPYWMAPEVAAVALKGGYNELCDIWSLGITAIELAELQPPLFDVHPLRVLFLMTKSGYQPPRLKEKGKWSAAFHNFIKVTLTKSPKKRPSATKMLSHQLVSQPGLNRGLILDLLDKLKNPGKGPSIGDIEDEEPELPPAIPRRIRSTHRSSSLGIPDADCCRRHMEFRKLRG
As to the kind of experiment: HPK1 Human STE Kinase Enzymatic Radiometric Assay. As to conditions: read-out: HPK1 IC50 nM Range*. The format is biochemical. The protocol: A stock solution of 10 mM of test compound is prepared in DMSO. The compound plate was prepared by 3-fold and 9-point serial dilutions. […] The reaction is initiated by The addition of the Mg/ATP mix. After incubation for 40 minutes at RT, the reaction is stopped by the addition of phosphoric acid to a concentration of 0.5%.

A further assay concerns the target Lck (h) (Homo sapiens, UniProt P06239). Put plainly: Lck Human  Kinase Enzymatic Radiometric Assay. Conditions: read-out: Lck IC50 nM Range*. The format is biochemical. The protocol: Lck (h) is incubated with 50 mM Tris pH 7.5, 0.1 mM EGTA, 0.1 mM Na3VO4, 250 uM KVEKIGEGTYGVVYK (Cdc2 peptide), 10 mM MgAcetate and [gamma-33P]-ATP (specific activity and concentration as required). The reaction is initiated by the addition of the Mg/ATP mix. After incubation for 40 minutes at RT, the reaction is stopped by the addition of phosphoric acid to a concentration of 0.5%. 10 uL of the reaction is then spotted onto a P30 filtermat and washed four times for 4 minutes in 0.425% phosphoric acid and once in methanol prior to drying and scintillation counting. For more details on the kinase assay procedures see: Gao, Y. et. al.; Biochem J., 451 (2): 313-328, 2013.

Chain of Lck (h) (P06239 whole entry): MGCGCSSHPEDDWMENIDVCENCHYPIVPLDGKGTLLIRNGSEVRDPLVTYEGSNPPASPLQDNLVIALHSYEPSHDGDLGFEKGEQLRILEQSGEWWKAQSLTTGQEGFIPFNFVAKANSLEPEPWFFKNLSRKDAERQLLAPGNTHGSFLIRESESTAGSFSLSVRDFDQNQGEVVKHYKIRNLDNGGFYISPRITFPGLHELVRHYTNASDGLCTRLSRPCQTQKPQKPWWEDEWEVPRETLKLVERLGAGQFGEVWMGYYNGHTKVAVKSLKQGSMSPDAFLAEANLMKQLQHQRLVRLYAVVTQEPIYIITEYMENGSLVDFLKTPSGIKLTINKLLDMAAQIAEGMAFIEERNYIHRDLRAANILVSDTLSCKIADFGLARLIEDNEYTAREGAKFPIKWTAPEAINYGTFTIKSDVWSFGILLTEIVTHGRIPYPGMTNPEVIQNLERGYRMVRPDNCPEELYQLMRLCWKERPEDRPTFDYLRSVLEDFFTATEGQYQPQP

As to `CCN1CCN(c2ccc(-c3cc(-c4ccc5c(c4)CCCNC5=O)c(N)nc3F)cc2)CC1` [I-67, 7-(2-amino-5-(4-(4-ethylpiperazin-1-yl)phenyl)-6-fluoropyridin-3-yl)-2,3,4,5-tetrahydro-1H-benzo[c]azepin-1-one], the IC50 (usually the concentration that inhibits the measured activity by half) in assay [1] was 11 to 100 nM; on Lck (h), > 1000 nM.
In the case of `Nc1nc(F)c(-c2ccc(S(=O)(=O)C3CC3)cc2)cc1-c1ccc2c(c1)CCNC2=O` [I-63, 6-(2-amino-5-(4-(cyclopropylsulfonyl)phenyl)-6-fluoropyridin-3-yl)-3,4-dihydroisoquinolin-1(2H)-one], the IC50 was 0.1 to 10 nM in assay [1] and > 1000 nM at Lck (h).
Turning to `Nc1nc(F)c(-c2ccc3c(c2)OCCCO3)cc1-c1cc2c(cc1F)C(=O)NCC2` [I-205, 6-(2-amino-5-(3,4-dihydro-2H-benzo[b][1,4]dioxepin-7-yl)-6-fluoropyridin-3-yl)-7-fluoro-3,4-dihydroisoquinolin-1(2H)-one], the figures for the IC50 (in assay [1]; on Lck (h)) were 0.1 to 10 nM and > 1000 nM, respectively.
In the same order, the values of `Nc1nc(F)c(-c2ccc(N3CCN(CC4CC4)CC3)cc2)cc1-c1cc2c(F)c[nH]c(=O)c2cc1F` [I-548, 6-(2-amino-5-(4-(4-(cyclopropylmethyl)piperazin-1-yl)phenyl)-6-fluoropyridin-3-yl)-4,7-difluoroisoquinolin-1(2H)-one] are 0.1 to 10 nM and > 1000 nM.
Consider `Nc1nc(F)c(-c2ccc(C3CCCN(CCO)C3)cc2)cc1-c1ccc2c(c1)CCNC2=O` (stereo not shown) [I-82, 6-(2-amino-6-fluoro-5-(4-(1-(2-hydroxyethyl)piperidin-3-yl)phenyl)pyridin-3-yl)-3,4-dihydroisoquinolin-1(2H)-one], for which the results for the IC50 (in assay [1]; on Lck (h)) were 0.1 to 10 nM and > 1000 nM, respectively.
`Nc1nc(F)c(-c2ccc(C3=CCN(CC4CC4)CC3)cc2)cc1-c1cc2c(cc1F)C(=O)NCC2` [I-297, 6-(2-amino-5-(4-(1-(cyclopropylmethyl)-1,2,3,6-tetrahydropyridin-4-yl)phenyl)-6-fluoropyridin-3-yl)-7-fluoro-3,4-dihydroisoquinolin-1(2H)-one]: the IC50 in assay [1] is 0.1 to 10 nM; on Lck (h) it was > 1000 nM.
In the same order, the values of `CN(CC(F)(F)F)C1CCN(c2ccc(-c3cc(-c4ccc5c(c4)CCNC5=O)c(N)nc3F)cc2)C1` (stereo not shown) [I-159, 6-(2-amino-6-fluoro-5-(4-(3-(methyl(2,2,2-trifluoroethyl)amino)pyrrolidin-1-yl)phenyl)pyridin-3-yl)-3,4-dihydroisoquinolin-1(2H)-one] are 0.1 to 10 nM and > 1000 nM.
As to `Nc1nc(F)c(-c2ccc(C3CCCN(CC(F)F)C3)cc2)cc1-c1ccc2c(c1)CCNC2=O` (stereo not shown) [I-78, 6-(2-amino-5-(4-(1-(2,2-difluoroethyl)piperidin-3-yl)phenyl)-6-fluoropyridin-3-yl)-3,4-dihydroisoquinolin-1(2H)-one], the IC50 in assay [1] is 0.1 to 10 nM; at Lck (h), > 1000 nM.
In the same order, the values of `CC(=O)N1CCC(Oc2ccc(-c3cc(-c4ccc5c(c4)CCNC5=O)c(N)nc3F)c3c2OCO3)CC1` [I-306, 6-(5-(7-((1-acetylpiperidin-4-yl)oxy)benzo[d][1,3]dioxol-4-yl)-2-amino-6-fluoropyridin-3-yl)-3,4-dihydroisoquinolin-1(2H)-one] are 0.1 to 10 nM and > 1000 nM.
In the same order, the values of `Nc1nc(F)c(-c2ccc3c(c2)C(=O)CC2(CCNCC2)O3)cc1-c1ccc2c(c1)CCNC2=O` [I-182, 6-(6-amino-2-fluoro-5-(1-oxo-1,2,3,4-tetrahydroisoquinolin-6-yl)pyridin-3-yl)spiro[chromane-2,4′-piperidin]-4-one 2,2,2-trifluoroacetate] are 0.1 to 10 nM and > 1000 nM.
As to `Nc1nc(F)c(-c2ccc(N3CCN(CC4CC4)CC3)cc2)cc1-c1cc2c(cc1F)C(=O)NCC2` [I-213, 6-(2-amino-5-(4-(4-(cyclopropylmethyl)piperazin-1-yl)phenyl)-6-fluoropyridin-3-yl)-7-fluoro-3,4-dihydroisoquinolin-1(2H)-one], the figures for the IC50 (in assay [1]; at Lck (h)) were 0.1 to 10 nM and > 1000 nM, respectively.
